{"source": "patent US20230357430A1", "about": "“RNF167 AND CASTOR1 AS NOVEL MTOR TARGETS” (UNIVERSITY OF PITTSBURGH - OF THE COMMONWEALTH SYSTEM OF …, priority 2020, published 2023)", "molecules": {"B1": {"name": "human CASTOR1 wild type (Flag-CASTOR1 WT) (other, UniProt Q8WTX7 1-329, looked up)", "chain": "MELHILEHRVRVLSVARPGLWLYTHPLIKLLFLPRRSRCKFFSLTETPEDYTLMVDEEGFKELPPSEFLQVAEATWLVLNVSSHSGAAVQAAGVTKIARSVIAPLAEHHVSVLMLSTYQTDFILVREQDLSVVIHTLAQEFDIYREVGGEPVPVTRDDSSNGFPRTQHGPSPTVHPIQSPQNRFCVLTLDPETLPAIATTLIDVLFYSHSTPKEAASSSPEPSSITFFAFSLIEGYISIVMDAETQKKFPSDLLLTSSSGELWRMVRIGGQPLGFDECGIVAQIAGPLAAADISAYYISTFNFDHALVPEDGIGSVIEVLQRRQEGLAS", "notes": "Expressed in cells and pulled down from lysates; also called HA-CASTOR1; cytosolic arginine sensor for mTORC1 subunit 1; not shown: N-terminal Flag tag"}}, "key": {"[1]": {"test_system": "CASTOR1 protein level in 293T cells", "experiment": "CASTOR1 protein level by immunoblotting after chemical treatment", "type": "cell-based, human", "conditions": "for Flag-CASTOR1 S14D protein level: 293T cells stably expressing Flag-CASTOR1 S14D; for Flag-CASTOR1 S14D protein level / Flag-CASTOR1 WT and S14A protein level: FIG. 10B-10D; for Flag-CASTOR1 WT and S14A protein level: 293T cells stably expressing Flag-CASTOR1 WT or S14A", "description": "(§1) Cell culture and transfection: 293T cells obtained from ATCC (CRL-3216) were maintained in DMEM supplemented with 10% FBS. MCF7, T47D, HCC1569, and HCC202 cells were obtained from Dr. Xiaosong Wang at the University of Pittsburgh, and cultured in RPMI1640 with 10% FBS. MM cells were cultured in DMEM plus 10% FBS, while KMM cells were cultured in DMEM plus 10% FBS and 10 μg/ml hygromycin. HSAEC (FC-0016) and HLBEC (FC-0054) cells were purchased from Lifeline and cultured with the BronchiaLife™ Epithelial Airway Medium Complete Kit (Lifeline LL-0023). All cells were maintained at 37 C° in 5% CO2.\n(§2) For amino acid deprivation and re-stimulation to assess mTORC1 activation, cells were incubated in EBSS medium (Thermo 24010043) for 50 min and then stimulated by adding arginine (Sigma A5131) at the indicated concentration. For ubiquitination assays, cells were deprived of FBS or arginine, or treated with 10 μM MK2206 (Selleckem S1078) overnight before immunoprecipitation and immunoblotting, or re-stimulated with FBS or arginine for 12 h before analysis.\nFor chemical treatments, CHX (CST 2112) or MG132 (Sigma M8699) dissolved in DMSO (VWR 97061-250) was diluted in medium to a specified concentration. Medium containing MG132 or CHX was then used to replace the original medium, and cells were cultured in the presence of MG132 for a specified time.\nImmunoblotting analysis: To detect all proteins except CASTOR1, samples were separated with 4%-20% SDS-polyacrylamide gels (Genscript M00656 and M00657). To detect CASTOR1 protein, samples were resolved with 10% SDS-polyacrylamide gels (Genscript M00665 and M00666). Proteins resolved in gels were then transferred to nitrocellulose membranes (GE Healthcare 10600004), which were incubated with primary and secondary antibodies overnight and for 1 h at room temperature, respectively. The signals were developed using the Luminiata Crescendo Western HRP Substrate (EMD Millipore WBLUR0500) and SuperSignal West Femto Maximum Sensitivity Substrate (Thermo 34096) or fluorescence secondary antibodies. The images were recorded with a ChemiDoc MP Imaging System (Bio-Rad 17001402) at either Chemi, Dylight 500, DyLight 800, or StarBright B700 channels."}, "mTORC1": {"test_system": "mTORC1", "experiment": "mTORC1 activation status (pS6K, p4EBP1) by immunoblotting", "type": "cell-based, human", "conditions": "293T cells, FIG. 1C", "description": "as §1\nFor amino acid deprivation and re-stimulation to assess mTORC1 activation, cells were incubated in EBSS medium (Thermo 24010043) for 50 min and then stimulated by adding arginine (Sigma A5131) at the indicated concentration. […]\n(§3) Immunoblotting analysis: To detect all proteins except CASTOR1, samples were separated with 4%-20% SDS-polyacrylamide gels (Genscript M00656 and M00657). […] The signals were developed using the Luminiata Crescendo Western HRP Substrate (EMD Millipore WBLUR0500) and SuperSignal West Femto Maximum Sensitivity Substrate (Thermo 34096) or fluorescence secondary antibodies. The images were recorded with a ChemiDoc MP Imaging System (Bio-Rad 17001402) at either Chemi, Dylight 500, DyLight 800, or StarBright B700 channels."}, "CASTOR1 mRNA": {"test_system": "CASTOR1 mRNA", "experiment": "CASTOR1 mRNA level by RT-qPCR", "type": "cell-based, human", "conditions": "293T cells, FIG. 6K", "description": "Reverse transcription real-time quantitative polymerase-chain reaction (RT-qPCR): Total RNA was extracted by using TRI Reagent (Sigma T9424) based on the manufacturer's instructions. Total RNA was subjected to reverse transcription using the Maxima H Minus First Strand cDNA Synthesis Kit (Thermo K1652). SsoAdvanced™ Universal SYBR® Green Supermix Kit (Bio-Rad 172-5272) was applied for qPCR analysis. The relative mRNA levels were normalized to a house-keeping gene, which yielded 2^−ΔΔCt values. For qPCR reaction, each sample was run in triplicates with cycle threshold (Ct) values within 0.5 Ct differences among the triplicates. The primers used for gene expression were 5′[…]3′ (forward; SEQ ID NO: 22) and 5′[…]3′ (reverse; SEQ ID NO: 23) for human CASTOR1; and […] (forward; SEQ ID NO: 24) and […] (reverse; SEQ ID NO: 25) for human β-actin."}, "[2]": {"test_system": "CASTOR1 phosphorylation at S14", "experiment": "CASTOR1 phosphorylation at the AKT consensus motif (S14), immunoprecipitation and immunoblotting", "type": "cell-based, human", "conditions": "Flag-CASTOR1 in cells, FIG. 2C", "description": "as §2\nImmunoprecipitation. Cells were lysed in lysis buffer (50 mM Tris-HCl, with 150 mM NaCl, 1 mM EDTA, and 1% Triton X-100, pH 7.4) supplemented with a complete protease inhibitor cocktail (Thermo 78438) and phosphatase inhibitor (Thermo 78427), followed by centrifugation at 4° C. for 5 min. […]\nas §3"}, "AKT1": {"target": "T1, AKT1 (Homo sapiens, UniProt P31749)", "T1 construct": "purchased Novus Biologicals 1775-KS (GST-AKT1); H00652968-P01 (GST-CASTOR1)", "T1 sequence (P31749 whole entry)": "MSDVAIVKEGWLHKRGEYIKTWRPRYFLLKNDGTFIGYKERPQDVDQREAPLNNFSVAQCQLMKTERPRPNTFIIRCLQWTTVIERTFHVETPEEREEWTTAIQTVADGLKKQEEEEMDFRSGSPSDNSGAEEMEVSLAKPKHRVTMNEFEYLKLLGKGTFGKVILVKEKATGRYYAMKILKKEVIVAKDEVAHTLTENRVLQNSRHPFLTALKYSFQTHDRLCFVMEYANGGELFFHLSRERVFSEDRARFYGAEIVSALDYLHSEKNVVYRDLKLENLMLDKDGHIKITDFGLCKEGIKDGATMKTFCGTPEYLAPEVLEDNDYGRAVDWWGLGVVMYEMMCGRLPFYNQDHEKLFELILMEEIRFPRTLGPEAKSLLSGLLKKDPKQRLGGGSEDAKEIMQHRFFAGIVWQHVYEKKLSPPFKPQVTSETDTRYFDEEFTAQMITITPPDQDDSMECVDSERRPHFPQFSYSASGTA", "experiment": "In vitro kinase assay, GST-AKT1 phosphorylation of GST-CASTOR1", "type": "biochemical", "conditions": "in the presence of ATP, FIG. 2D", "description": "In vitro kinase assay: Recombinant GST-AKT1 protein (Novus Biologicals, 1775-KS) was mixed with GST-CASTOR1 protein (Novus Biologicals, H00652968-P01) in a 30 μl reaction mixture at room temperature for 1 h. The reaction mixture contained protease inhibitors, 100 mM HEPES (pH 7.4), 150 mM NaCl, 50 mM MgCl2,1 mM DTT, 0.01% NaN3, 1 mM ATP, 0.2 μg GST-AKT1 and 1 μg GST-CASTOR1."}, "ER+ breast cancer cells": {"test_system": "ER+ breast cancer cells", "experiment": "Endogenous CASTOR1 protein level in ER+ breast cancer cells by immunoblotting", "type": "cell-based, human", "conditions": "FIG. 13D", "description": "as §1\nas §3, with “M00657). To detect CASTOR1 protein, samples were resolved with 10% SDS-polyacrylamide gels (Genscript M00665 and M00666).” for “M00657).”"}, "[3]": {"target": "human CASTOR1 wild type (Flag-CASTOR1 WT) (UniProt Q8WTX7)"}, "[4]": {"target": "T2, recombinant GST-CASTOR1 protein (Novus Biologicals, H00652968-P01) (UniProt Q8WTX7)", "T2 sequence": "B1 chain"}, "[5]": {"target": "the molecule itself", "experiment": "dimerization assay, method not described (FIG. 33)"}}, "note": "Entries after “also recorded” stand apart in the source; their conditions may differ. Peptide text beside a SMILES is read from it. * marks the point of attachment. Cbz = O=C(OCc1ccccc1)*"}
{"molecule": "NC1(c2ccc(-c3nc4ccn5c(=O)[nH]nc5c4cc3-c3ccccc3)cc2)CCC1", "note": "[MK2206]", "values": [{"measurement": "CASTOR1 protein level", "setting": "[1]; 293T cells, FIG. 1C", "value": "upregulated CASTOR1 protein"}, {"measurement": "mTORC1 activation", "setting": "mTORC1", "value": "decreased mTORC1 activation"}, {"measurement": "CASTOR1 mRNA level", "setting": "CASTOR1 mRNA", "value": "but not mRNA level"}, {"measurement": "specific phosphorylation of the AKT motif of CASTOR1 (S14)", "setting": "[2]", "value": "significantly reduced the specific phosphorylation of the AKT motif"}, {"measurement": "phosphorylation of purified GST-CASTOR1 by purified GST-AKT1", "setting": "AKT1", "value": "abolished"}, {"measurement": "endogenous CASTOR1 protein level", "setting": "ER+ breast cancer cells", "value": "enhanced; also recorded: increases the endogenous CASTOR1 protein level"}]}
{"molecule": "RING finger protein 167 (RNF167)", "values": [{"measurement": "CASTOR1 ubiquitination", "setting": "[3]", "value": "only RNF167 increased CASTOR1 ubiquitination"}]}
{"molecule": "recombinant GST-AKT1 protein (Novus Biologicals, 1775-KS)", "values": [{"measurement": "in vitro kinase assay: phosphorylation of GST-CASTOR1", "setting": "[4]", "value": "efficiently phosphorylated purified GST-tagged CASTOR1 (GST-CASTOR1) recombinant protein only in the presence of ATP, which was abolished by AKT inhibitor MK2206"}]}
{"molecule": "C[C@@H]1C[C@@H]([C@H](O)CC2CC(=O)NC(=O)C2)C(=O)[C@@H](C)C1", "note": "[CHX, cycloheximide]", "values": [{"measurement": "Flag-CASTOR1 S14D protein level", "setting": "[1]", "value": "reduced"}, {"measurement": "Flag-CASTOR1 WT and S14A protein level", "setting": "[1]", "value": "minimal effects on WT and S14A"}]}
{"molecule": "CC(C)C[C@@H](C=O)NC(=O)[C@H](CC(C)C)NC(=O)[C@H](CC(C)C)NC(=O)OCc1ccccc1", "note": "[MG132] (Cbz-Leu-Leu-Leu-aldehyde)", "values": [{"measurement": "accumulation of CASTOR1 protein", "setting": "[1]; 293T cells co-transfected with Flag-CASTOR1 and myr-HA-AKT1, FIG. 9H", "value": "increased the accumulation of CASTOR1 protein"}, {"measurement": "Flag-CASTOR1 S14D protein level", "setting": "[1]", "value": "increased S14D protein level"}, {"measurement": "Flag-CASTOR1 WT and S14A protein level", "setting": "[1]", "value": "minimal effects on WT and S14A"}, {"measurement": "RNF167-mediated downregulation of CASTOR1 protein", "setting": "[1]; RNF167 overexpression, FIG. 7H", "value": "partially rescues"}, {"measurement": "accumulation of CASTOR1 protein", "setting": "[1]; cells expressing Flag-CASTOR1 and the vector control, FIG. 9H", "value": "only had a marginal effect"}]}
{"molecule": "B1", "values": [{"measurement": "binding result", "setting": "[5]", "value": "binds"}]}
